Biological target: human F508del-CFTR (Homo sapiens, UniProt P13569, DEL508-508)
Test: F508del-CFTR cell surface expression (corrector activity), DiscoveRx ß-galactosidase complementation chemiluminescence assay in recombinant U2OS cell line;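 also: U2OS cells co-expressing ProLink-tagged F508del-CFTR and a membrane-anchored enzyme acceptor, where more surface CFTR restores β-galactosidase activity measured by chemiluminescence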
Details: U2OS cells, 16h compound incubation; for EC50: EC50, F508del-CFTR cell surface expression, geomean of several measurements; for Emax: U2OS, in relation to the Emax of the corrector lumacaftor (=100%), arithmetic mean

human F508del-CFTR, sequence (P13569 with tags, fused parts or gaps DEL508-508): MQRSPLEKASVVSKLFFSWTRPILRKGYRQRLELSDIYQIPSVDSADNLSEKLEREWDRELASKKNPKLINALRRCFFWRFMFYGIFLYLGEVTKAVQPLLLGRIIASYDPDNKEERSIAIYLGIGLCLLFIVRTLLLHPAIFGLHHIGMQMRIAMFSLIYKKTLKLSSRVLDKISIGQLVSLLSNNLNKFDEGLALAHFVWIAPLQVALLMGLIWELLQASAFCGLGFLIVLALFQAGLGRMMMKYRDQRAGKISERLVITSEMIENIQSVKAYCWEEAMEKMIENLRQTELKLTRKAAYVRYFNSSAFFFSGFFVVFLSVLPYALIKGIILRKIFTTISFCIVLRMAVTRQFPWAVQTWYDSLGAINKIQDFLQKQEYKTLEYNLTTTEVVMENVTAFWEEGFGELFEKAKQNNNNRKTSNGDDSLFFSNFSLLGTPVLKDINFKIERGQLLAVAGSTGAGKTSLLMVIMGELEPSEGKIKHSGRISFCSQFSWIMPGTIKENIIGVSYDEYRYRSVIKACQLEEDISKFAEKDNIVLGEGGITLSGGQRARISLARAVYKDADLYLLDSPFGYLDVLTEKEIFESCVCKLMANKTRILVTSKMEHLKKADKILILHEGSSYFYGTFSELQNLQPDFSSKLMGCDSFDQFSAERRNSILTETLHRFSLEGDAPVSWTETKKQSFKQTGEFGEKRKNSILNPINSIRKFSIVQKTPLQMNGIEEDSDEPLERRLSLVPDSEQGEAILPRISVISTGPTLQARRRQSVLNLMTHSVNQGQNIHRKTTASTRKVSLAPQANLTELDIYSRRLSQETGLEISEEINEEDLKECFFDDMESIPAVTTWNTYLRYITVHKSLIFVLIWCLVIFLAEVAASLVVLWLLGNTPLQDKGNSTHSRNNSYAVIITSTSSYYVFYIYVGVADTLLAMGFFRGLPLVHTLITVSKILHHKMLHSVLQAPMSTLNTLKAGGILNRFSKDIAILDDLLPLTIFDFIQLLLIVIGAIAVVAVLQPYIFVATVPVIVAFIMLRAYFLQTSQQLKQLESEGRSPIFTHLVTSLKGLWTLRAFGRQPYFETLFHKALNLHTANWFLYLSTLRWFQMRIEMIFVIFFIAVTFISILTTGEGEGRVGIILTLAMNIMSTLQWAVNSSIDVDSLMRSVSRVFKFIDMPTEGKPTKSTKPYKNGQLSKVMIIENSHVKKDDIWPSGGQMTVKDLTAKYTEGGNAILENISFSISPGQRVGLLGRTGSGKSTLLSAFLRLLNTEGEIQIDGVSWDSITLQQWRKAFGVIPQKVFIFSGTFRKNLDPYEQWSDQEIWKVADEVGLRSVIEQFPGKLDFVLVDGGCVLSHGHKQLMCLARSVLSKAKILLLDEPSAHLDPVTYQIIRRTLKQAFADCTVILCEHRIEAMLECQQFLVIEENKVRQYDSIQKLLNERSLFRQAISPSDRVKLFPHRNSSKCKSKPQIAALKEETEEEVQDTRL

An EC50 of 0.673 µM and an Emax of 298% were found for COc1noc(CCNC(=O)[C@@H]2CC(=O)N(C)[C@@H](CC(C)C)C(=O)N(C)[C@@H](CC(F)(F)F)C(=O)N[C@H](Cc3ccccc3)COc3ccc4ncc(F)cc4c3C(=O)N2)n1 [Example 940, (3S,7S,10S,13R)-13-benzyl-20-fluoro-7-isobutyl-N-(2-(3-methoxy-1,2,4-oxadiazol-5-yl)ethyl)-6,9-dimethyl-1,5,8,11-tetraoxo-10-(2,2,2-trifluoroethyl)-1,2,3,4,5,6,7,8,9,10,11,12,13,14-tetradecahydro-[1]oxa[4,7,10,14]tetraazacycloheptadecino[16,17-f]quinoline-3-carboxamide] in this work.

An EC50 of 0.135 µM and an Emax of 459% were found for COc1noc(CCNC(=O)[C@@H]2CC(=O)N(C)[C@@H](CC(C)C)C(=O)N(C)[C@H](CC(F)(F)F)C(=O)N[C@H](Cc3ccccc3)COc3ccc4ncc(F)cc4c3C(=O)N2)n1 [Example 941, (3S,7S,10R,13R)-13-benzyl-20-fluoro-7-isobutyl-N-(2-(3-methoxy-1,2,4-oxadiazol-5-yl)ethyl)-6,9-dimethyl-1,5,8,11-tetraoxo-10-(2,2,2-trifluoroethyl)-1,2,3,4,5,6,7,8,9,10,11,12,13,14-tetradecahydro-[1]oxa[4,7,10,14]tetraazacycloheptadecino[16,17-f]quinoline-3-carboxamide] in this work.

An EC50 of 0.194 µM and an Emax of 460% were found for COc1noc(CCNC(=O)[C@@H]2CC(=O)N(C)[C@@H](CC(C)C)C(=O)N(C)[C@H](CC(F)(F)F)C(=O)N[C@H](Cc3ccccc3)COc3cc(C)nc(OC)c3C(=O)N2)n1 [Example 942, (3R,6R,9S,13S)-3-benzyl-9-isobutyl-16-methoxy-N-(2-(3-methoxy-1,2,4-oxadiazol-5-yl)ethyl)-7,10,18-trimethyl-5,8,11,15-tetraoxo-6-(2,2,2-trifluoroethyl)-2,3,4,5,6,7,8,9,10,11,12,13,14,15-tetradecahydropyrido[3,4-p][1]oxa[4,7,10,14]tetraazacycloheptadecine-13-carboxamide] in this work.

An EC50 of 0.24 µM and an Emax of 471% were found for COc1nc(C)cc2c1C(=O)N[C@H](C(=O)NC[C@@H](O)c1nc(C3CC3)no1)CC(=O)N(C)[C@@H](CC(C)C)C(=O)N(C)[C@H](Cc1nc(C(F)(F)F)no1)C(=O)N[C@H](Cc1ccccc1)CO2 [Example 943, (3R,6R,9S,13S)-3-benzyl-N-((R)-2-(3-cyclopropyl-1,2,4-oxadiazol-5-yl)-2-hydroxyethyl)-9-isobutyl-16-methoxy-7,10,18-trimethyl-5,8,11,15-tetraoxo-6-((3-(trifluoromethyl)-1,2,4-oxadiazol-5-yl)methyl)-2,3,4,5,6,7,8,9,10,11,12,13,14,15-tetradecahydropyrido[3,4-p][1]oxa[4,7,10,14]tetraazacycloheptadecine-13-carboxamide] in this work.

An EC50 of 0.077 µM and an Emax of 336% were found for CC(C)C[C@H]1C(=O)N(C)[C@H](Cc2nc(C(F)(F)F)no2)C(=O)N[C@H](Cc2ccccc2)COc2ccc3ncc(F)cc3c2C(=O)N[C@H](C(=O)NCCCOC(F)F)CC(=O)N1C [Example 944, (3S,7S,10R,13R)-13-benzyl-N-(3-(difluoromethoxy)propyl)-20-fluoro-7-isobutyl-6,9-dimethyl-1,5,8,11-tetraoxo-10-((3-(trifluoromethyl)-1,2,4-oxadiazol-5-yl)methyl)-1,2,3,4,5,6,7,8,9,10,11,12,13,14-tetradecahydro-[1]oxa[4,7,10,14]tetraazacycloheptadecino[16,17-f]quinoline-3-carboxamide] in this work.

An EC50 of 0.033 µM and an Emax of 502% were found for COc1noc(CCNC(=O)[C@@H]2CC(=O)N(C)[C@@H](CC(C)C)C(=O)N(C)[C@H](Cc3nc(C(F)(F)F)no3)C(=O)N[C@H](Cc3ccccc3)COc3cc(C)nc(OC)c3C(=O)N2)c1F [Example 945, (3R,6R,9S,13S)-3-benzyl-N-(2-(4-fluoro-3-methoxyisoxazol-5-yl)ethyl)-9-isobutyl-16-methoxy-7,10,18-trimethyl-5,8,11,15-tetraoxo-6-((3-(trifluoromethyl)-1,2,4-oxadiazol-5-yl)methyl)-2,3,4,5,6,7,8,9,10,11,12,13,14,15-tetradecahydropyrido[3,4-p][1]oxa[4,7,10,14]tetraazacycloheptadecine-13-carboxamide] in this work.

An EC50 of 0.447 µM and an Emax of 404% were found for Cc1cc(CCNC(=O)[C@@H]2CC(=O)N(C)[C@@H](CC(C)C)C(=O)N(C)[C@H](CC(F)F)C(=O)N[C@H](Cc3ccccc3)COc3ccc4ncc(F)cc4c3C(=O)N2)on1 [Example 946, (3S,7S,10R,13R)-13-benzyl-10-(2,2-difluoroethyl)-20-fluoro-7-isobutyl-6,9-dimethyl-N-(2-(3-methylisoxazol-5-yl)ethyl)-1,5,8,11-tetraoxo-1,2,3,4,5,6,7,8,9,10,11,12,13,14-tetradecahydro-[1]oxa[4,7,10,14]tetraazacycloheptadecino[16,17-f]quinoline-3-carboxamide] in this work.

An EC50 of 0.281 µM and an Emax of 458% were found for COc1noc(CCNC(=O)[C@@H]2CC(=O)N(C)[C@@H](CC(C)C)C(=O)N(C)[C@H](CC(F)F)C(=O)N[C@H](Cc3ccccc3)COc3ccc4ncc(F)cc4c3C(=O)N2)n1 [Example 947, (3S,7S,10R,13R)-13-benzyl-10-(2,2-difluoroethyl)-20-fluoro-7-isobutyl-N-(2-(3-methoxy-1,2,4-oxadiazol-5-yl)ethyl)-6,9-dimethyl-1,5,8,11-tetraoxo-1,2,3,4,5,6,7,8,9,10,11,12,13,14-tetradecahydro-[1]oxa[4,7,10,14]tetraazacycloheptadecino[16,17-f]quinoline-3-carboxamide] in this work.

An EC50 of 0.061 µM and an Emax of 501% were found for COc1cc(CCNC(=O)[C@@H]2CC(=O)N(C)[C@@H](CC(C)C)C(=O)N(C)[C@H](Cc3nc(C(F)(F)F)no3)C(=O)N[C@H](Cc3ccccc3)COc3ccnc(OC)c3C(=O)N2)on1 [Example 948, (3R,6R,9S,13S)-3-benzyl-9-isobutyl-16-methoxy-N-(2-(3-methoxyisoxazol-5-yl)ethyl)-7,10-dimethyl-5,8,11,15-tetraoxo-6-((3-(trifluoromethyl)-1,2,4-oxadiazol-5-yl)methyl)-2,3,4,5,6,7,8,9,10,11,12,13,14,15-tetradecahydropyrido[3,4-p][1]oxa[4,7,10,14]tetraazacycloheptadecine-13-carboxamide] in this work.

An EC50 of 0.113 µM and an Emax of 518% were found for COc1noc(CCNC(=O)[C@@H]2CC(=O)N(C)[C@@H](CC(C)C)C(=O)N(C)[C@H](Cc3nc(C(F)(F)F)no3)C(=O)N[C@H](Cc3ccccc3)COc3ccnc(OC)c3C(=O)N2)n1 [Example 949, (3R,6R,9S,13S)-3-benzyl-9-isobutyl-16-methoxy-N-(2-(3-methoxy-1,2,4-oxadiazol-5-yl)ethyl)-7,10-dimethyl-5,8,11,15-tetraoxo-6-((3-(trifluoromethyl)-1,2,4-oxadiazol-5-yl)methyl)-2,3,4,5,6,7,8,9,10,11,12,13,14,15-tetradecahydropyrido[3,4-p][1]oxa[4,7,10,14]tetraazacycloheptadecine-13-carboxamide] in this work.

An EC50 of 0.201 µM and an Emax of 464% were found for Cc1cc2c3c(ccc2cn1)OC[C@@H](Cc1ccccc1)NC(=O)[C@@H](CC(F)(F)F)N(C)C(=O)[C@H](CC(C)C)N(C)C(=O)C[C@@H](C(=O)NCCc1noc(C2CC2)n1)NC3=O [Example 950, (3S,7S,10R,13R)-13-benzyl-N-(2-(5-cyclopropyl-1,2,4-oxadiazol-3-yl)ethyl)-7-isobutyl-6,9,20-trimethyl-1,5,8,11-tetraoxo-10-(2,2,2-trifluoroethyl)-1,2,3,4,5,6,7,8,9,10,11,12,13,14-tetradecahydro-[1]oxa[4,7,10,14]tetraazacycloheptadecino[16,17-f]isoquinoline-3-carboxamide] in this work.

An EC50 of 0.165 µM and an Emax of 405% were found for Cc1cc2c3c(ccc2cn1)OC[C@@H](Cc1ccccc1)NC(=O)[C@@H](CC(F)(F)F)N(C)C(=O)[C@H](CC(C)C)N(C)C(=O)C[C@@H](C(=O)NCCc1nc(C2CC2)no1)NC3=O [Example 951, (3S,7S,10R,13R)-13-benzyl-N-(2-(3-cyclopropyl-1,2,4-oxadiazol-5-yl)ethyl)-7-isobutyl-6,9,20-trimethyl-1,5,8,11-tetraoxo-10-(2,2,2-trifluoroethyl)-1,2,3,4,5,6,7,8,9,10,11,12,13,14-tetradecahydro-[1]oxa[4,7,10,14]tetraazacycloheptadecino[16,17-f]isoquinoline-3-carboxamide] in this work.

An EC50 of 0.339 µM and an Emax of 438% were found for Cc1cc2c3c(ccc2cn1)OC[C@@H](Cc1ccccc1)NC(=O)C1(CC(F)(F)C1)N(C)C(=O)[C@H](CC(C)C)N(C)C(=O)C[C@@H](C(=O)NCCc1nc(C2CC2)no1)NC3=O [Example 952, (3′S,7′S,13′R)-13′-benzyl-N-(2-(3-cyclopropyl-1,2,4-oxadiazol-5-yl)ethyl)-3,3-difluoro-7′-isobutyl-6′,9′,20′-trimethyl-1′,5′,8′,11′-tetraoxo-2′,3′,4′,5′,6′,7′,8′,9′,11′,12′,13′,14′-dodecahydro-1′H-spiro[cyclobutane-1,10′-[1]oxa[4,7,10,14]tetraazacycloheptadecino[16,17-f]isoquinoline]-3′-carboxamide] in this work.

An EC50 of 0.268 µM and an Emax of 394% were found for COc1cc(CCNC(=O)[C@@H]2CC(=O)N(C)[C@@H](CC(C)C)C(=O)N(C)C3(CC(F)(F)C3)C(=O)N[C@H](Cc3ccccc3)COc3ccc4cnc(C)cc4c3C(=O)N2)on1 [Example 953, (3′S,7′S,13′R)-13′-benzyl-3,3-difluoro-7′-isobutyl-N-(2-(3-methoxyisoxazol-5-yl)ethyl)-6′,9′,20′-trimethyl-1′,5′,8′,11′-tetraoxo-2′,3′,4′,5′,6′,7′,8′,9′,11′,12′,13′,14′-dodecahydro-1′H-spiro[cyclobutane-1,10′-[1]oxa[4,7,10,14]tetraazacycloheptadecino[16,17-f]isoquinoline]-3′-carboxamide] in this work.

— patent US20240208992A1, “MACROCYCLES AS CFTR MODULATORS” (Idorsia Pharmaceuticals Ltd, priority 2021, published 2024)
